Molecular target: T1, Cathepsin K (Homo sapiens, UniProt P43235)
T1 sequence (P43235 115-329): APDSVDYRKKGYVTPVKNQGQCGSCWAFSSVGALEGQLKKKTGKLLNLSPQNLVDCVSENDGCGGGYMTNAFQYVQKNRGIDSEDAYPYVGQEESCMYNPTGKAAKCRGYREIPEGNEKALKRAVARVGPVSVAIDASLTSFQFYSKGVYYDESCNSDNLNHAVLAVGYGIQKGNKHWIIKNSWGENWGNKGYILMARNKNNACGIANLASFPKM
Test: Measurement of cathepsin K inhibitory activity
Assay type: biochemical
Settings: Dixon plot, pH 5.5, 37° C.
Protocol: (i) Measurement of Cathepsin K Inhibitory Activity
65 μL of Cathepsin K enzyme reaction buffer (50 mmol/L of 2-(N-morpholino)ethanesulfonate, 2 mmol/L of ethylene diamine tetraacetate (EDTA) and 4 mmol/L of dithio threitol (DTT) were mixed to adjust to pH 5.5), 5 μL of cysteine protease inhibitor solution of several concentrations, 20 μL of synthesized substrate (t-butyloxycarbonyl-L-alanyl-glycyl-L-prolyl-L-arginine-4-methyl-chromanyl-7-amide) solution of several concentrations and 10 μL of cathepsin K enzyme solution were mixed and the increase of fluorescence intensity when reacted at 37° C. was measured (Ex (excitation wavelength)=355 nm, Em (fluorescence wavelength)=460 nm). As to the substrate and the compound of the present invention, enzyme reactions were carried out in combination of several appropriate concentrations and Dixon plotting was prepared, to define the absolute value of X-coordinate of the intersection point of the graph as Ki value.

Work on `CC(C)CC(NC(=O)C1CCCCCC1)C(=O)c1nnc(SCCN(C)C)o1` (stereo not shown) [example 1] yielded a Ki of 48 nM.

— patent US20040204368A1, “Oxadiazole derivative compounds and drugs containing these compounds as the active ingredient” (priority 2001, published 2004)
